Results as given in ChEMBL document CHEMBL1240489, “Discovery of N-{1-[3-(3-oxo-2,3-dihydrobenzo[1,4]oxazin-4-yl)propyl]piperidin-4-yl}-2-phenylacetamide (Lu AE51090): an allosteric muscarinic M1 receptor agonist with unprecedented selectivity and procognitive potential” (J Med Chem, 2010).

Legend:
Hepatocyte = test: Intrinsic clearance in rat hepatocytes at 1 uM after up to 60 mins by LC/MS-MS analysis; assay type: ADME, cell-based, Liver; settings: 1 h
[1] = molecular target: Urotensin-2 receptor (Homo sapiens) (UniProt Q9UKP6); test: Binding affinity to human UT1 receptor by radioligand displacement assay
[2] = Ratio of brain to plasma AUC in Sprague-Dawley rat at 10 mg/kg, sc; assay type: ADME, organism-based; set-up: dose 10 mg/kg, route subcutaneous
[3] = molecular target: 5-hydroxytryptamine receptor 1A (Homo sapiens, UniProt P08908); test: Binding affinity to human 5-HT1A receptor by radioligand displacement assay
5-hydroxytryptamine receptor 1A, sequence (P08908 whole entry): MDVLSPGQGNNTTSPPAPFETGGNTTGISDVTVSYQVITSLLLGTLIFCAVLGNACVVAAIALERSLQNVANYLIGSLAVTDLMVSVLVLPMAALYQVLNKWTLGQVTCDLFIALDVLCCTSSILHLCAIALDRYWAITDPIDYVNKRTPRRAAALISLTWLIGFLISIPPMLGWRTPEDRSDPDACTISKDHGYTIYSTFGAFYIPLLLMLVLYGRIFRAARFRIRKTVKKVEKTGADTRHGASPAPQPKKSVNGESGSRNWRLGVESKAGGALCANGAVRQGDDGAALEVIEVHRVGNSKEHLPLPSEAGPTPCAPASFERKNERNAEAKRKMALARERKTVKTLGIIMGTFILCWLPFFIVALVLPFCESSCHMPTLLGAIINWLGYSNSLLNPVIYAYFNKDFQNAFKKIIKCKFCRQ

[4] = Binding affinity to human muscle-type nicotinic acetylcholine receptor by radioligand displacement assay
[5] = Binding affinity to voltage gated Na channel site 2 by radioligand displacement assay
[6] = molecular target: Muscarinic acetylcholine receptor M3 (Homo sapiens, UniProt P20309); test: Binding affinity to human muscarinic M3 receptor by radioligand displacement assay
Muscarinic acetylcholine receptor M3, sequence (P20309 whole entry): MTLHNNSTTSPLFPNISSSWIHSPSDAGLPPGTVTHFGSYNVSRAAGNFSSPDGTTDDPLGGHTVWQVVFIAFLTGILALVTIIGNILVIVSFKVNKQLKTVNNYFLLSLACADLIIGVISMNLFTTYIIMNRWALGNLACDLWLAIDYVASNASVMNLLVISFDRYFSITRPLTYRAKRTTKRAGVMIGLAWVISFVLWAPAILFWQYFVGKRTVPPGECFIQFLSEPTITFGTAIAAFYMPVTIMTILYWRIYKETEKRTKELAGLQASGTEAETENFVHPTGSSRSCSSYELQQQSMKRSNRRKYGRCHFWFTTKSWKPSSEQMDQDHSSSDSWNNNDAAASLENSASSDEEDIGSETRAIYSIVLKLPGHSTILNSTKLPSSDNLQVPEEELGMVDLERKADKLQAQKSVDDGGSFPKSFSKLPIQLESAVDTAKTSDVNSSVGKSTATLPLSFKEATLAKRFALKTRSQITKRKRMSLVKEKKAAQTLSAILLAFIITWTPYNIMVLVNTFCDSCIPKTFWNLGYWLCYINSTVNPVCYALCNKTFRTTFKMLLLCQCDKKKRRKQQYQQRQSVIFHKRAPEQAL

[7] = molecular target: Neuronal acetylcholine receptor; alpha4/beta2 (Homo sapiens, UniProt P17787+P43681); test: Binding affinity to nAChR alpha4beta2 receptor by radioligand displacement assay; assay type: protein-complex assay
Neuronal acetylcholine receptor; alpha4/beta2, sequence (P17787 whole entry): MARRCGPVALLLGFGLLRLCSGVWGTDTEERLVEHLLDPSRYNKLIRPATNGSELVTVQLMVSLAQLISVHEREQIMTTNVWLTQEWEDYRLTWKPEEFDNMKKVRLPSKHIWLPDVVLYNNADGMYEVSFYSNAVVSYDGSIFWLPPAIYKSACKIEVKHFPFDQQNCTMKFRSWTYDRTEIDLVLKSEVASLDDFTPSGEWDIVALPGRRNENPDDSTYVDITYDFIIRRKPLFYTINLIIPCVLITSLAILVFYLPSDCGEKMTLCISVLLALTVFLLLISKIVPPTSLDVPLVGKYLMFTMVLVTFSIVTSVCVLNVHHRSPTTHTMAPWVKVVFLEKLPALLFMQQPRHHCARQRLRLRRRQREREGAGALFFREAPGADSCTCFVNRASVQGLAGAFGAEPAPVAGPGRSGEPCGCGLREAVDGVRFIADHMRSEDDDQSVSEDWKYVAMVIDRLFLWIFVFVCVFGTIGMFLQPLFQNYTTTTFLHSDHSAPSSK
Neuronal acetylcholine receptor; alpha4/beta2, sequence (P43681 whole entry): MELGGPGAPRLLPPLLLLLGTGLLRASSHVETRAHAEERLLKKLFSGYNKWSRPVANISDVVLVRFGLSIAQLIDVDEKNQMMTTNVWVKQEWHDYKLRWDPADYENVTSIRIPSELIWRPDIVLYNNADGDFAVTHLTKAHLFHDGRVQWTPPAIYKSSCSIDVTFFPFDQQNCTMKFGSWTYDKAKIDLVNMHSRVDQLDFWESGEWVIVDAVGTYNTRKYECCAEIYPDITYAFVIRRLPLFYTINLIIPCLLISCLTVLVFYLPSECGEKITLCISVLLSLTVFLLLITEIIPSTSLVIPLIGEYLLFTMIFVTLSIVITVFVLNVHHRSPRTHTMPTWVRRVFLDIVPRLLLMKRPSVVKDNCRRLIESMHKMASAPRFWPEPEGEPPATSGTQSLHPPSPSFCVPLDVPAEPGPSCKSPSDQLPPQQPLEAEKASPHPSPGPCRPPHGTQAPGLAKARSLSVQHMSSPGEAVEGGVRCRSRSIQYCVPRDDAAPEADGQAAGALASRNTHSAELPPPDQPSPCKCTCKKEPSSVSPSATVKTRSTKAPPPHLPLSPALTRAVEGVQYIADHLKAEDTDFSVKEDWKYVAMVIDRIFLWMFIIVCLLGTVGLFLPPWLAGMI

[8] = molecular target: Muscarinic acetylcholine receptor M1 (Homo sapiens, UniProt P11229, Y381A)
[9] = Drug level in C57/6J mouse brain at 20 mg/kg, sc after 30 mins; assay type: ADME, organism-based; set-up: dose 20 mg/kg, route subcutaneous; settings: read-out: Drug uptake
[10] = molecular target: T1, Muscarinic acetylcholine receptor M4 (Homo sapiens, UniProt P08173); test: Displacement of [3H]-4-DAMP from human muscarinic M4 receptor expressed in BHK-21 cells; assay type: cell-based
T1 sequence (P08173 whole entry): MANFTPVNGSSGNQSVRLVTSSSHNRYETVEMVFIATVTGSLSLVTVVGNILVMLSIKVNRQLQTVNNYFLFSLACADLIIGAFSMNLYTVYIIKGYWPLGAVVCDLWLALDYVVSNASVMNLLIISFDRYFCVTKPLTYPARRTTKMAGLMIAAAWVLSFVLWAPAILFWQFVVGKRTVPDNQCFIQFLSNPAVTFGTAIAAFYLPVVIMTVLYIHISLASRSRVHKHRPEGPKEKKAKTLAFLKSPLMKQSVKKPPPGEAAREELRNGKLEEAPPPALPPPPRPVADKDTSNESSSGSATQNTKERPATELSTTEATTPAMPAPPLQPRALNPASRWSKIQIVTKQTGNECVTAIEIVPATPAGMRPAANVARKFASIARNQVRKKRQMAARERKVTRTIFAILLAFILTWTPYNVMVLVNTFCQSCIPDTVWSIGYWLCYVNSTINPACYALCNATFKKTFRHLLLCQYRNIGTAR

Cannabinoid receptor 1 = Cannabinoid receptor 1 (Homo sapiens, UniProt P21554); test: Binding affinity to human CB1 receptor by radioligand displacement assay
Cannabinoid receptor 1, sequence (P21554 whole entry): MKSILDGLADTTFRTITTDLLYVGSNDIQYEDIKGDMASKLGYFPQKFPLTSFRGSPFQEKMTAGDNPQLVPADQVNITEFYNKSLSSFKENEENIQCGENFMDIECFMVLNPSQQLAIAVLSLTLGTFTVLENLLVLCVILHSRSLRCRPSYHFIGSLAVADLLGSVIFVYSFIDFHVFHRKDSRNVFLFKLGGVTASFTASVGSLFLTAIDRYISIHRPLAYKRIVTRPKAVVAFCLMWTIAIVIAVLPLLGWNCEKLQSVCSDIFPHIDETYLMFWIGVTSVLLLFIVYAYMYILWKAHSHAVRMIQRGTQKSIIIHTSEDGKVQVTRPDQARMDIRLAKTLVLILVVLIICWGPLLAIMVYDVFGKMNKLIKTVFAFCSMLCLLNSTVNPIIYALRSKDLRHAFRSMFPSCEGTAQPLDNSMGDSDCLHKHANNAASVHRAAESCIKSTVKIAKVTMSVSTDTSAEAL

[11] = Binding affinity to GABAA receptor by radioligand displacement assay
[12] = Binding affinity to PDE4 by enzyme assay
[13] = molecular target: Melatonin receptor type 1A (Homo sapiens, UniProt P48039); test: Binding affinity to human MT1 receptor by radioligand displacement assay
[14] = molecular target: Sodium-dependent noradrenaline transporter (Homo sapiens, UniProt P23975); test: Binding affinity to human NE transporter by radioligand displacement assay
Sodium-dependent noradrenaline transporter, sequence (P23975 whole entry): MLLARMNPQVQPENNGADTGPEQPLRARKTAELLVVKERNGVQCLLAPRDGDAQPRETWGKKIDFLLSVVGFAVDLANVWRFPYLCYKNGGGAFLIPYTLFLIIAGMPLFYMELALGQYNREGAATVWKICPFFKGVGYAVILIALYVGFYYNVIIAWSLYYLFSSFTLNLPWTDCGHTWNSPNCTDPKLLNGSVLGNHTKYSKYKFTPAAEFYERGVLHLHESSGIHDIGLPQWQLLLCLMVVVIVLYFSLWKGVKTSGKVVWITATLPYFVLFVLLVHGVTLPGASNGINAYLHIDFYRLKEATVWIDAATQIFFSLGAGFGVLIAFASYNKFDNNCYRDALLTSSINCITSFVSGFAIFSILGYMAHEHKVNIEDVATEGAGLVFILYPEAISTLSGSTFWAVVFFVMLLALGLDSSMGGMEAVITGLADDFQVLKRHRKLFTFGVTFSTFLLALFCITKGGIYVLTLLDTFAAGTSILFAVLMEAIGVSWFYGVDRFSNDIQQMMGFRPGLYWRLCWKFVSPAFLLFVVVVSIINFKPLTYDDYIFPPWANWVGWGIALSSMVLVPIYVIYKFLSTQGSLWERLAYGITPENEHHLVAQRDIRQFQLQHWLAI

Mus musculus = test: Reversal of 0 seconds delay-induced memory decay in C57Bl/6J mouse assessed as positive alteration at 0.31 to 20 mg/kg, sc for 1 week by Y-maze test; assay type: functional; settings: dose mg/kg 0.31-20; route subcutaneous
[15] = molecular target: Alpha-1D adrenergic receptor (Homo sapiens, UniProt P25100); test: Binding affinity to human adrenergic Alpha-1D receptor by radioligand displacement assay
[16] = molecular target: Ribosyldihydronicotinamide dehydrogenase [quinone] (Homo sapiens, UniProt P16083); test: Binding affinity to ML2 (MT3) receptor by radioligand displacement assay
[17] = Binding affinity to human Ca2+ channel diltiazem site by radioligand displacement assay
Adenosine receptor A2a = Adenosine receptor A2a (Homo sapiens, UniProt P29274); test: Binding affinity to human adenosine A2A receptor by radioligand displacement assay
Adenosine receptor A2a, sequence (P29274 whole entry): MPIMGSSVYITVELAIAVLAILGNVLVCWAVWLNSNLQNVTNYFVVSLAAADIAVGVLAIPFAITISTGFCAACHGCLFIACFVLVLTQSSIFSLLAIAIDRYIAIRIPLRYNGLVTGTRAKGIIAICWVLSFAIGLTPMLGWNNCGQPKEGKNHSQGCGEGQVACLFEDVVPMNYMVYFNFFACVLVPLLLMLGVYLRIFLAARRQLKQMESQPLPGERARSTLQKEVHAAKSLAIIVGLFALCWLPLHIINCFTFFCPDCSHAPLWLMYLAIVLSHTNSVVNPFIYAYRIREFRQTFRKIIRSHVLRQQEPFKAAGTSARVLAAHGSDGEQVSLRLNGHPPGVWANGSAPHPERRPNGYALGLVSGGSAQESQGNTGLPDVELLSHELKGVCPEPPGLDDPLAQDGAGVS

[18] = molecular target: Amine oxidase [flavin-containing] A (Homo sapiens, UniProt P21397); test: Binding affinity to MAOA by radioligand displacement assay
Amine oxidase [flavin-containing] A, sequence (P21397 whole entry): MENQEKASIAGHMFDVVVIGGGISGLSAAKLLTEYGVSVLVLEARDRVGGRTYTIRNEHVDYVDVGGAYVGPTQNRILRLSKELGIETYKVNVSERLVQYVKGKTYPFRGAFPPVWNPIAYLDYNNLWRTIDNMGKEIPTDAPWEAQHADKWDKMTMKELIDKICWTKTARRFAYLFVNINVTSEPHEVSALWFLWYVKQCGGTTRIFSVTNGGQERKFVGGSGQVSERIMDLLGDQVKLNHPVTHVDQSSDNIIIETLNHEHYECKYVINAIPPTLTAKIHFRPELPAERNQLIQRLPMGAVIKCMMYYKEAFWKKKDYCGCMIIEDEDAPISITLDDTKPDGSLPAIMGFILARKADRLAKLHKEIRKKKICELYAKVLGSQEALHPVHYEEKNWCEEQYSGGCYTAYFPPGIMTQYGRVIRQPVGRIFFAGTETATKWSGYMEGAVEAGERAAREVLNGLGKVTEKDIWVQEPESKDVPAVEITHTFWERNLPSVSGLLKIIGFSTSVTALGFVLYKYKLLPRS

Glucocorticoid receptor = Glucocorticoid receptor (Homo sapiens, UniProt P04150); test: Binding affinity to human glucocorticoid receptor by radioligand displacement assay
Glucocorticoid receptor, sequence (P04150 whole entry): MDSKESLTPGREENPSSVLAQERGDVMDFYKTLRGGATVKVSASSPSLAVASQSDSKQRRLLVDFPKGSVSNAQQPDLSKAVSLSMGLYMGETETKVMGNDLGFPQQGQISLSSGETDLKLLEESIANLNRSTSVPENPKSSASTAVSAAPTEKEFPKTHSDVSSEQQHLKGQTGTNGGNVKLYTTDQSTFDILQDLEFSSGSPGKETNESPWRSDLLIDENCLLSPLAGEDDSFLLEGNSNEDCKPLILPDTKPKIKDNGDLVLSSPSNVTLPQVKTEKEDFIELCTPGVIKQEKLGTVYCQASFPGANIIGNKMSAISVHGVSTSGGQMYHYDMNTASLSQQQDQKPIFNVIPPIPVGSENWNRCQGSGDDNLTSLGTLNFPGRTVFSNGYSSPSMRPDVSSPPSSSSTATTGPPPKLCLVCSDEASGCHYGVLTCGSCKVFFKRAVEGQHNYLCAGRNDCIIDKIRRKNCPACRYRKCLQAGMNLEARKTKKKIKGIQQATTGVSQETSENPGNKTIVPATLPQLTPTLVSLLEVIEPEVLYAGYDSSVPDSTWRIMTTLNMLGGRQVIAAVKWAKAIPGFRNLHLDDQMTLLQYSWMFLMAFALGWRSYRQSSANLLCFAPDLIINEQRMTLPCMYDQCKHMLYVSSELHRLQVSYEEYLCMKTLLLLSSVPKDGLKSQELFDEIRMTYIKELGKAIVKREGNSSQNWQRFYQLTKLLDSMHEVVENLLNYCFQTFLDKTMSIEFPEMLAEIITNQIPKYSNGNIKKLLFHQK

[19] = Binding affinity to L-type Ca2+ channel DHP binding site by radioligand displacement assay

Question: With `O=C(Cc1ccccc1)NC1CCN(CCCN2C(=O)COc3ccccc32)CC1` as the compound, how does the CL (Hepatocyte) read?
Answer: 100 mL/min

Question: What about the Ki [1] of the same compound?
Answer: ≥ 1000 nM

Question: And the Kp [2]?
Answer: 0.2

Question: And the Ki [3]?
Answer: ≥ 1000 nM

Question: What about the Ki [4] of the same compound?
Answer: ≥ 1000 nM

Question: What about the Ki [5] of the same compound?
Answer: ≥ 1000 nM

Question: What about the Ki [6] of the same compound?
Answer: ≥ 1000 nM

Question: What about the Ki [7] of the same compound?
Answer: ≥ 1000 nM

Question: And the EC50 [8]?
Answer: 97 nM

Question: What about the concentration at 0.5 h [9] of the same compound?
Answer: 440 ng/g

Question: What about the Ki [10] of the same compound?
Answer: 6900 nM

Question: And the Ki (Cannabinoid receptor 1)?
Answer: ≥ 1000 nM

Question: And the Ki [11]?
Answer: ≥ 1000 nM

Question: And the Ki [12]?
Answer: ≥ 1000 nM

Question: And the Ki [13]?
Answer: ≥ 1000 nM

Question: What about the Ki [14] of the same compound?
Answer: ≥ 1000 nM

Question: And the Activity (Mus musculus)?
Answer: 80%

Question: And the Ki [15]?
Answer: ≥ 1000 nM

Question: And the Ki [16]?
Answer: ≥ 1000 nM

Question: What about the Ki [17] of the same compound?
Answer: ≥ 1000 nM

Question: And the Ki (Adenosine receptor A2a)?
Answer: ≥ 1000 nM

Question: And the Ki [18]?
Answer: ≥ 1000 nM

Question: And the Ki (Glucocorticoid receptor)?
Answer: ≥ 1000 nM

Question: And the Ki [19]?
Answer: ≥ 1000 nM
